Reference: US8299265B2, “Amine derivatives having NPY Y5 receptor antagonistic activity and the uses thereof” (Shionogi & Co., Ltd., priority 2007, dated 2012)

What was measured:
male C57BL/6J mice = test: Inhibition of Y5 agonist-induced food intake in mice; assay type: in vivo; settings: Mus musculus, 4 hours after dosing, read-out: Inhibition ratio of Y5 agonist-induced food intake; for inhibition in vivo at 6 mg/kg: unmarked cells
Description: Under diethylether anesthesia the skull of male C57BL/6J mice (12-14 week old, 25-30 g) was exposed by making an incision about 1-cm long from external occipital crest to nasal dorsum, and then drilled in the 1-mm lateral position to the left following 1-mm posterior from bregma. After recovery from anesthesia mice were dosed with either 0.5% hydroxypropylmethyl cellulose solution (vehicle, Shin-Etsu Chemical Co., Ltd) or the compounds of this invention suspended in the 0.5% hydroxypropylmethyl cellulose solution. At one hour after the treatment, each animal received saline or a NPY Y5 receptor specific agonist, [cPP^1-7, NPY^19-23, Ala^31, Aib^32, Gln^34]-hPancreatic Polypeptide (0.1 nmol/1.5 μL saline/mouse) through the skull opening using a canula. Residual food was measured at 2 and 4 hours after the treatment.

[1] = test system: high-fat diet-induced obese mice; test: Suppression of body weight gain in high-fat diet-induced obese mice; assay type: in vivo; settings: 6 mg/kg b.i.d. for 3 weeks, compared to vehicle
Description: Prior to administration of the compounds of this invention, male C57BL/6J mice were given a high-fat diet to induce obese. The high-fat diet-induced obese mice (13-14 week old, body weight 28-33 g) were dosed with 0.5% hydroxypropylmethyl cellulose solution (vehicle, Shin-Etsu Chemical Co., Ltd) or the compounds of this invention suspended in the 0.5% hydroxypropylmethyl cellulose solution twice a day (b.i.d.) for 3 weeks with the same diet. The changes in body weight were monitored daily.

mouse NPY Y5 receptor = molecular target: T1, mouse NPY Y5 receptor (Mus musculus, UniProt O70342); test: Affinity for mouse NPY Y5 receptor ([125I] peptide YY binding, CHO cell membranes); settings: membranes of CHO cells expressing mouse NPY Y5 receptor
T1 construct: expressed in transfected cells; membranes used
T1 sequence (O70342 1-466): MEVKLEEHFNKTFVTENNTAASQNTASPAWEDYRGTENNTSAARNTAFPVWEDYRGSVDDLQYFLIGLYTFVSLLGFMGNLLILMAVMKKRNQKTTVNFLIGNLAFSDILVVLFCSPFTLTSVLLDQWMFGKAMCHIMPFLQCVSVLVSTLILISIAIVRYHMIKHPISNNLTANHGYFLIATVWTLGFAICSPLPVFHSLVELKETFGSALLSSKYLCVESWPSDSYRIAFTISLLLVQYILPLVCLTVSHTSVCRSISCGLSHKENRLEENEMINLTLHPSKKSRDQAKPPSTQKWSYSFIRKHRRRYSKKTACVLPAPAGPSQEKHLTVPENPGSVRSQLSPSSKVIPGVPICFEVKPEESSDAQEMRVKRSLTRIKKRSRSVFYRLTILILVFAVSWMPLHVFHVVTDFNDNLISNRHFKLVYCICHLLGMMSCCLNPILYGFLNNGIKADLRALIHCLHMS
From the text: cDNA sequence encoding a mouse NPY Y5 receptor (Biochim. Biophys. Acta 1328, 83-89, 1997) was cloned in a vector (pME18S, Takebe et al. Mol. Cell. Biol. 8, 466-472). The obtained expression vector was transfected into CHO cells as a host by using Lipofect AMINE reagent (Trademark, Gico BRL Co., Ltd.) according to the instruction manual. The cells that stably express NPY Y5 receptor were obtained.
The membranes prepared from the CHO cells expressing NPY Y5 receptor, the compound of this invention and 30,000 cpm [^125I] peptide YY (60 pM of final concentration: Amersham) were incubated in the assay buffer (20 mM HEPES-Hanks buffer containing 0.1% bovine serum albumin, pH 7.4) at 25° C. for 2 hours, and then the membrane was filtered from the mixture through a glassfilter (GF/C) presoaked with 1% polyethyleneimine. After washing with 50 mM Tris-HCl buffer (pH 7.4), radioactivity retained on the filters was quantified with a gamma counter.
Nonspecific binding was defined as the amount of radioactivity bound to the membranes after incubation in the presence of 200 nM of peptide YY. The 50% inhibitory concentration of the test compound against the specific peptide YY binding (IC50 value) was calculated (Inui, A. et al. Endocrinology 131, 2090-2096 (1992)).

P-gp = molecular target: T2, P-gp (Mus musculus, UniProt P21447); test: Potential for drug-drug interactions through P-gp in vivo (Kp with or without cyclosporin A); settings: mice, Kp with versus without cyclosporin A (20 mg/kg)
T2 construct: from tissue; host or cells: living mice (Jcl; C57BL/6J, male, 7 weeks), brain / blood-brain barrier
Description: Transportability of the compounds of this invention through the blood-brain barrier (blood-brain partition coefficient; Kp) in mice (Jcl; C57BL/6J mice, ♂, 7 weeks) was defined from the difference in concentration of the compounds between in plasma and in brain after intravenous administration of the compounds (0.5 mg/2 mL/kg). The brain Kp value of Compound (I-72) (Kp Cont.) was 1.29 showing high transportability through the blood-brain barrier.
To examine the potential for drug-drug interactions through P-gp in vivo, the Kp values of compounds of this invention with (KpCSA) or without (KpCont.) cyclosporin A (20 mg/kg), a P-gp inhibitor, were calculated. The KpCSA value of Compound (I-72) was 1.14, and the calculated KpCSA KpCont. ratio was 0.9.
On the other hand the potential for drug-drug interactions through P-pg of amide compound B which has similar structure of Compound (I-72) was also examined in mice. The KpCont. and KpCSA were 0.04 and 0.84, respectively.

T2 sequence (P21447 whole entry): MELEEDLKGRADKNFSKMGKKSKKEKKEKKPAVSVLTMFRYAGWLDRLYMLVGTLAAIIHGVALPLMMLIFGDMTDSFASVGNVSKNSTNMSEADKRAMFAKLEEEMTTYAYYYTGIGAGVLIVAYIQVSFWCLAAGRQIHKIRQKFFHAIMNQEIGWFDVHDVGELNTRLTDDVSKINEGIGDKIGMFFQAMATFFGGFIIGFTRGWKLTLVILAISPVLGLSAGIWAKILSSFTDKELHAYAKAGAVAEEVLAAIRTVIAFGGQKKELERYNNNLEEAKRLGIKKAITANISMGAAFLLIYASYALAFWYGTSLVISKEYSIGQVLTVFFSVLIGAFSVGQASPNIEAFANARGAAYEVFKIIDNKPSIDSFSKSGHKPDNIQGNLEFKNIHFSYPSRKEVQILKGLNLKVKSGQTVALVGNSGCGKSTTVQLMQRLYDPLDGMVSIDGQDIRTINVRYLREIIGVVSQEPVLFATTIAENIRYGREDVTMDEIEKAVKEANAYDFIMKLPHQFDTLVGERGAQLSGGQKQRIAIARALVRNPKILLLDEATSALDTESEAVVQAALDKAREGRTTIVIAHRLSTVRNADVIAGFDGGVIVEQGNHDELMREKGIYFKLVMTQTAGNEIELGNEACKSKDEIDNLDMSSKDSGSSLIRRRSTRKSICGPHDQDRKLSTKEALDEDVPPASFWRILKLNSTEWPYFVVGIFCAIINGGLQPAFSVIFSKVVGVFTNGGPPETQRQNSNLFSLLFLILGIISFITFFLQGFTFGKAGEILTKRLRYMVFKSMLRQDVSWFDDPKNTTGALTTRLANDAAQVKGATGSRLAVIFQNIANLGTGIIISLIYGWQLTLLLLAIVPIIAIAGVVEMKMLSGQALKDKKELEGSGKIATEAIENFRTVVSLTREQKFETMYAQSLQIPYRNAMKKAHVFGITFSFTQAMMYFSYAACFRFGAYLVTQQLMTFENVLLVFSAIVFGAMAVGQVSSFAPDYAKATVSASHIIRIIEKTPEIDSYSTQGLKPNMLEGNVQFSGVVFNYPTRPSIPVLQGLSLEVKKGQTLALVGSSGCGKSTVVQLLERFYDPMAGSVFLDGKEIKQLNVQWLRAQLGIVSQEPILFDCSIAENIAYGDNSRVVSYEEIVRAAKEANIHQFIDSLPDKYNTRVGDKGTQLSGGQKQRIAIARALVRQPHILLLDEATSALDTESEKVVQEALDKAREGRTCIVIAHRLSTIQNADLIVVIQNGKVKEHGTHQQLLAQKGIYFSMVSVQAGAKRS

Compound | inhibition in vivo at 6 mg/kg (male C57BL/6J mice) | melting point | further results
CC(C)(C)S(=O)(=O)NC[C@H]1CC[C@H](Nc2nc3ccc(F)cc3o2)CC1 [Ij-159] | 83.2% |  | 
CC(C)S(=O)(=O)NC[C@H]1CC[C@H](Nc2nc3cc(F)ccc3o2)CC1 [Ij-155] |  |  | inhibition in vivo at 1.5 mg/kg (male C57BL/6J mice): 56.1%
CC(C)S(=O)(=O)NC[C@H]1CC[C@H](Nc2nc3cccc(F)c3s2)CC1 [Ij-153] | 73% |  | 
CC(C)S(=O)(=O)NC[C@H]1CC[C@H](Nc2nc3ccc(F)cc3o2)CC1 [Ij-156] |  | 170 to 171 °C | inhibition in vivo at 12.5 mg/kg (male C57BL/6J mice; **Dose: 12.5 mg/kg): 90.4%
CCS(=O)(=O)NC[C@H]1CC[C@H](Nc2ccc(-c3ccccc3)cn2)CC1 [Ij-4] | 88.2% |  | 
CC(C)(C)S(=O)(=O)NC[C@H]1CC[C@H](Nc2nc3cc(F)ccc3o2)CC1 [Ij-158] | 70.5% | 220 to 221 °C | 
CC(C)S(=O)(=O)NC[C@H]1CC[C@H](Nc2nc3cc(F)ccc3s2)CC1 [Ij-151] |  | 165 to 166 °C | inhibition in vivo at 1.5 mg/kg (male C57BL/6J mice): 78.4%
CCS(=O)(=O)NC[C@H]1CC[C@H](Nc2ccn(-c3ccccc3F)n2)CC1 [Ij-112] |  |  | Body weight gain [1]: suppresses Body Weight Gain
CCS(=O)(=O)NC[C@H]1CC[C@H](Nc2nc3ccccc3o2)CC1 [Ij-150] | 25.3% | 170 to 171 °C | 
CCS(=O)(=O)N[C@H]1CC[C@H](CNc2cc(-c3ccccc3)on2)CC1 [Ii-44] |  |  | IC50 (mouse NPY Y5 receptor): 3.4 nM
CCC(C)S(=O)(=O)NC[C@H]1CC[C@H](Nc2nc3cc(F)ccc3o2)CC1 (stereo partly drawn) [Ij-160] |  |  | inhibition in vivo at 1.5 mg/kg (male C57BL/6J mice): 36.6%
CC(C)S(=O)(=O)N[C@H]1CC[C@H](CNc2cc(F)cc(N3CCOCC3)c2)CC1 [Ii-55] | 64.3% |  | 
CC(C)(C)S(=O)(=O)NC[C@H]1CC[C@H](Nc2ccn(-c3ccccc3F)n2)CC1 [Ij-110] | 90.3% |  | 
CC(C)S(=O)(=O)NC[C@H]1CC[C@H](Nc2nc3cc(Cl)ccc3s2)CC1 [Ij-154] | 81.3% | 166 to 167 °C | 
C[C@@H]1CN(c2ccc(NC(=O)[C@H]3CC[C@H](NS(=O)(=O)C(C)(C)C)CC3)cc2)C[C@H](C)O1 [amide compound B, reference compound] |  |  | KpCSA/KpCont. ratio (P-gp): 20.5
C[C@@H]1CN(c2ccc(NC[C@H]3CC[C@H](NS(=O)(=O)C(C)(C)C)CC3)cc2)C[C@H](C)O1 [Compound I-72] |  |  | KpCSA/KpCont. ratio (P-gp): 0.9
Cn1c(=O)oc2cc(NC[C@H]3CC[C@H](NS(=O)(=O)C(C)(C)C)CC3)cc(F)c21 [Ii-45] | 76.2% |  | Body weight gain [1]: suppresses Body Weight Gain
CCC(C)S(=O)(=O)NC[C@H]1CC[C@H](Nc2nc3ccc(F)cc3o2)CC1 (stereo partly drawn) [Ij-161] |  | 173 to 174 °C | inhibition in vivo at 1.5 mg/kg (male C57BL/6J mice): 15.8%
CC(C)S(=O)(=O)NC[C@H]1CC[C@H](Nc2nc3ccc(F)cc3s2)CC1 [Ij-152] |  | 151 to 152 °C | inhibition in vivo at 1.5 mg/kg (male C57BL/6J mice): 62.6%
